These results are taken from patent US10035804B2, “Spirodiamine derivatives as aldosterone synthase inhibitors” (Hoffmann-La Roche Inc., priority 2014, dated 2018).

One experiment concerns the target human CYP11B1 (Homo sapiens (Human), UniProt P15538). Briefly: G-402 cellular enzyme assay, human CYP11B1 (cortisol release). The format is cell-based. Particulars: G-402 cells expressing human CYP11B1; 1 μM Deoxycortisol; cortisol in supernatant after 16 h. From the text:
(§1) Herein we identified the use of the G-402 cell line as a host cell to ectopically express (transiently or stably) enzymes of the CYP11 family. Specifically we developed stable G-402 cells expressing ectopically human CYP11B1, human CYP11B2, human CYP11A1, cynmolgus CYP11B1 or cynomolgus CYP11B2 enzyme activity. Importantly the identified cell line G-402 expresses co-factors (adrenodoxin and adrenodoxin reductase) important for the activity of the CYP11 family and no relevant enzyme activity of the CYP11 family (in comparison to H295R cells) was detected in these cells. Therefore the G-402 cell line is uniquely suited as a host cell for the ectopic expression of enzymes from the CYP11 family.
(§2) G-402 cells can be obtained from ATCC (CRL-1440) and were originally derived from a renal leiomyoblastoma.
(§3) The expression plasmids contains the ORF for either human/cyno CYP11B1 or CYP11B2 under the control of a suitable promoter (CMV-promoter) and a suitable resistance marker (neomycin). Using standard techniques the expression plasmid is transfected into G-402 cells and these cells are then selected for expressing the given resistance markers. Individual cell-clones are then selected and assessed for displaying the desired enzymatic activity using 11-Deoxycorticosterone (Cyp11B2) or 11-Deoxycortisol (Cyp11B1) as a substrate.
(§4) G-402 cells expressing CYP11 constructs were established as described above and maintained in McCoy's 5a Medium Modified, ATCC Catalog No. 30-2007 containing 10% FCS and 400 μg/ml G418 (Geneticin) at 37° C. under an atmosphere of 5% CO2/95% air. Cellular enzyme assays were performed in DMEM/F12 medium containing 2.5% charcoal treated FCS and appropriate concentration of substrate (0.3-10 uM 11-Deoxycorticosterone, 11-Deoxycortisol or Corticosterone). For assaying enzymatic activity, cells were plated onto 96 well plates and incubated for 16 h. An aliquot of the supernatant is then transferred and analyzed for the concentration of the expected product (Aldosterone for CYP11B2; Cortisol for CYP11B1). The concentrations of these steroids can be determined using HTRF assays from CisBio analyzing either Aldosterone or Cortisol.
(§5) Inhibition of the release of produced steroids can be used as a measure of the respective enzyme inhibition by test compounds added during the cellular enzyme assay. The dose dependent inhibition of enzymatic activity by a compound is calculated by means of plotting added inhibitor concentrations (x-axes) vs. measured steroid/product level (y-axes). The inhibition is then calculated by fitting the following 4-parameter sigmoidal function (Morgan-Mercer-Flodin (MMF) model) to the raw data points using the least squares method:
(§6) [formula] wherein, A is the maximum y value, B is the EC50 factor determined using XLFit, C is the minimum y value and D is the slope value.
(§7) EC50 values for compounds claimed herein were tested with the G402-based assay system described. Cyp11B2 enzyme activity was tested in presence of 1 μM Deoxycorticosterone and variable amounts of inhibitors; Cyp11B1 enzyme activity was tested in presence of 1 μM Deoxycortisol and variable amounts of inhibitors.

Another experiment addresses human CYP11B2 (Homo sapiens (Human), UniProt P19099). The experiment in a line: G-402 cellular enzyme assay, human CYP11B2 (aldosterone release). The format is cell-based. Particulars: G-402 cells expressing human CYP11B2; 1 μM Deoxycorticosterone; aldosterone in supernatant after 16 h.
From the text: as §1, §2, §3, §4, §5, §6, §7

Sequence of human CYP11B1 (P15538 25-503): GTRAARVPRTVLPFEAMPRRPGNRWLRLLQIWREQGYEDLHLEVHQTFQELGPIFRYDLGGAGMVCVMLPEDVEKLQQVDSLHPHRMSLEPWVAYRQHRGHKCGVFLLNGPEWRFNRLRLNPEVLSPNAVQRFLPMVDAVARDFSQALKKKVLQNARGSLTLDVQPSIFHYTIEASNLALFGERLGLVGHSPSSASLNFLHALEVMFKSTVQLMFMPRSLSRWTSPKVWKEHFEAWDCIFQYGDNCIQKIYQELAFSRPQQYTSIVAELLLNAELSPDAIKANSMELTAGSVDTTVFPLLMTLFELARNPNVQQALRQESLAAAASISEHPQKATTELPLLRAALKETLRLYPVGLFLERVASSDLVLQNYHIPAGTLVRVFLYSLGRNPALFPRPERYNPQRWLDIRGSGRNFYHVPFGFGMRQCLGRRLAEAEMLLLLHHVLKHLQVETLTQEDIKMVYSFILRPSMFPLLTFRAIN
Sequence of human CYP11B2 (P19099 25-503): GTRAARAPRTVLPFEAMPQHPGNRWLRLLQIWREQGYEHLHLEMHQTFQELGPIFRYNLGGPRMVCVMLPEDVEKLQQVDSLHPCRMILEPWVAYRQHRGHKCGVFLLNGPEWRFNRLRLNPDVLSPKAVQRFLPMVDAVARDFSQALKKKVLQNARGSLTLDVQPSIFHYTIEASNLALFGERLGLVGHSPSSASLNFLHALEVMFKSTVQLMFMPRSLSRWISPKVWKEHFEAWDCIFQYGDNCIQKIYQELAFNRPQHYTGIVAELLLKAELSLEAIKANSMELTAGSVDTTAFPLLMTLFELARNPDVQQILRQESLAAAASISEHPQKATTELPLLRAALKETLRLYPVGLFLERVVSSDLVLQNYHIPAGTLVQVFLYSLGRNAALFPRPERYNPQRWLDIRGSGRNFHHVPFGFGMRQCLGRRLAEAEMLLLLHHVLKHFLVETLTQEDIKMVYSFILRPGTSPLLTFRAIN

With `COc1ccc2c(n1)C(C)(C)N(c1cncc(N3CC4(CN(C(=O)c5cnccc5C)C4)C3)c1)C2=O` [Example 16, 2-Methoxy-7,7-dimethyl-6-[5-[2-(4-methylpyridine-3-carbonyl)-2,6-diazaspiro[3.3]heptan-6-yl]-3-pyridyl]pyrrolo[3,4-b]pyridin-5-one], the EC50 on human CYP11B1 is 29.3 nM; on human CYP11B2, 0.0827 nM.
The corresponding values for `Cc1c(C(=O)N2CC3(C2)CN(c2cncc(N4C(=O)c5ccc(Cl)cc5C4(C)C)c2)C3)cnn1C` [Example 26, 5-Chloro-2-[5-[2-(1,5-dimethylpyrazole-4-carbonyl)-2,6-diazaspiro[3.3]heptan-6-yl]-3-pyridyl]-3,3-dimethyl-isoindolin-1-one] are 35.5 nM and 0.0775 nM.
On the same counts, the results for `Cc1ccnc(C)c1C(=O)N1CC2(C1)CN(c1cncc(N3C(=O)c4ccc(Cl)cc4C3(C)C)c1)C2` [Example 49, 5-Chloro-2-[5-[2-(2,4-dimethylpyridine-3-carbonyl)-2,6-diazaspiro[3.3]heptan-6-yl]-3-pyridyl]-3,3-dimethyl-isoindolin-1-one] are 5.07 nM and 0.111 nM.
On the same counts, the results for `CC1c2cc(Cl)ccc2C(=O)N1c1cncc(N2CC3(CN(C(=O)c4cnn(C)c4)C3)C2)c1` (centres unmarked) [Example 18, 5-Chloro-3-methyl-2-[5-[2-(1-methylpyrazole-4-carbonyl)-2,6-diazaspiro[3.3]heptan-6-yl]-3-pyridyl]isoindolin-1-one] are 16.7 nM and 0.0078 nM.
On human CYP11B1, `CCn1cc(C(=O)N2CC3(CCN(c4cncc(N5C(=O)c6ccc(Cl)cc6C5(C)C)c4)CC3)C2)cn1` [Example 60, 5-Chloro-2-[5-[2-(1-ethylpyrazole-4-carbonyl)-2,7-diazaspiro[3.5]nonan-7-yl]-3-pyridyl]-3,3-dimethyl-isoindolin-1-one] displayed an EC50 of 0.892 nM.
As to `COc1ccncc1C(=O)N1CC2(C1)CN(c1cncc(N3C(=O)c4ccc(Cl)cc4C3(C)C)c1)C2` [Example 24, 5-Chloro-2-[5-[2-(4-methoxypyridine-3-carbonyl)-2,6-diazaspiro[3.3]heptan-6-yl]-3-pyridyl]-3,3-dimethyl-isoindolin-1-one], the values for the EC50 at human CYP11B1 and at human CYP11B2 were 17.2 nM and 0.0449 nM, respectively.
The corresponding values for `Cn1cc(C(=O)N2CC3(C2)CN(c2cncc(N4C(=O)c5ccc(Cl)cc5C4(C)C)c2)C3)cn1` [Example 1, 5-Chloro-3,3-dimethyl-2-[5-[2-(1-methylpyrazole-4-carbonyl)-2,6-diazaspiro[3.3]-heptan-6-yl]-3-pyridyl]isoindolin-1-one] are 11.3 nM and 0.002 nM.
The corresponding values for `Cc1ccncc1C(=O)N1CC2(C1)CN(c1cncc(N3C(=O)c4ccc(Cl)cc4C34CC4)c1)C2` [Example 20, 5′-Chloro-2′-[5-[2-(4-methylpyridine-3-carbonyl)-2,6-diazaspiro[3.3]heptan-6-yl]-3-pyridyl]spiro[cyclopropane-1,3′-isoindoline]-1′-one] are 20 nM and 0.0195 nM.
On to `CCn1cc(C(=O)N2CC3(C2)CN(c2cncc(N4C(=O)c5ccc(C#N)cc5C4(C)C)c2)C3)cn1` [Example 9, 2-[5-[2-(1-Ethylpyrazole-4-carbonyl)-2,6-diazaspiro[3.3]heptan-6-yl]-3-pyridyl]-3,3-dimethyl-1-oxo-isoindoline-5-carbonitrile], for which the results for the 50% effective concentration (EC50) at human CYP11B1 and at human CYP11B2 were 24.4 nM and 0.009 nM, respectively.
`Cn1cc(C(=O)N2CC3(C2)CN(c2cncc(N4C(=O)c5ccc(Cl)cc5C4(C)C)c2)C3)c(C(F)F)n1` [Example 35, 5-Chloro-2-[5-[2-[3-(difluoromethyl)-1-methyl-pyrazole-4-carbonyl]-2,6-diazaspiro[3.3]heptan-6-yl]-3-pyridyl]-3,3-dimethyl-isoindolin-1-one]: the results for the concentration for a half-maximal effect (EC50) on human CYP11B1 and on human CYP11B2 were 29.5 nM and 0.333 nM, respectively.
The corresponding values for `Cn1nccc1C(=O)N1CC2(C1)CN(c1cncc(N3C(=O)c4ccc(Cl)cc4C3(C)C)c1)C2` [Example 5, 5-Chloro-3,3-dimethyl-2-[5-[2-(2-methylpyrazole-3-carbonyl)-2,6-diazaspiro[3.3]heptan-6-yl]-3-pyridyl]isoindolin-1-one] are 15.7 nM and 0.145 nM.
On the same counts, the results for `CCn1cc(C(=O)N2CC3(C2)CN(c2cncc(N4C(=O)c5ccc(Cl)cc5C4(C)C)c2)C3)cn1` [Example 2, 5-Chloro-2-[5-[2-(1-ethylpyrazole-4-carbonyl)-2,6-diazaspiro[3.3]heptan-6-yl]-3-pyridyl]-3,3-dimethyl-isoindolin-1-one] are 11.1 nM and 0.003 nM.
The corresponding values for `CC(C)n1cc(C(=O)N2CC3(C2)CN(c2cncc(N4C(=O)c5ccc(Cl)cc5C4(C)C)c2)C3)cn1` [Example 3, 5-Chloro-2-[5-[2-(1-isopropylpyrazole-4-carbonyl)-2,6-diazaspiro[3.3]heptan-6-yl]-3-pyridyl]-3,3-dimethyl-isoindolin-1-one] are 11.1 nM and 0.0083 nM.
Take `CC1(C)c2cc(Cl)ccc2C(=O)N1c1cncc(N2CC3(CN(C(=O)c4cncc(C#N)c4)C3)C2)c1` [Example 36, 5-[6-[5-(6-Chloro-1,1-dimethyl-3-oxo-isoindolin-2-yl)-3-pyridyl]-2,6-diazaspiro[3.3]heptane-2-carbonyl]pyridine-3-carbonitrile]: the 50% effective concentration (EC50) at human CYP11B1 worked out at 31 nM; on human CYP11B2 it was 0.0457 nM.
As for `Cc1nc(C(=O)N2CC3(C2)CN(c2cncc(N4C(=O)c5ccc(Cl)cc5C4(C)C)c2)C3)co1` [Example 45, 5-Chloro-3,3-dimethyl-2-[5-[2-(2-methyloxazole-4-carbonyl)-2,6-diazaspiro[3.3]heptan-6-yl]-3-pyridyl]isoindolin-1-one], the concentration giving a half-maximal response (EC50) came out at 2.09 nM at human CYP11B1 and 0.068 nM at human CYP11B2.
The corresponding values for `Cc1cnc(C(=O)N2CC3(C2)CN(c2cncc(N4C(=O)c5ccc(Cl)cc5C4(C)C)c2)C3)cn1` [Example 30, 5-Chloro-3,3-dimethyl-2-[5-[2-(5-methylpyrazine-2-carbonyl)-2,6-diazaspiro[3.3]heptan-6-yl]-3-pyridyl]isoindolin-1-one] are 3.75 nM and 0.0456 nM.
The compound `Cn1cc(C(=O)N2CCC3(CC2)CN(c2cncc(N4C(=O)c5ccc(Cl)cc5C4(C)C)c2)C3)cn1` [Example 56, 5-Chloro-3,3-dimethyl-2-[5-[7-(1-methylpyrazole-4-carbonyl)-2,7-diazaspiro[3.5]nonan-2-yl]-3-pyridyl]isoindolin-1-one] yielded a half-maximal effective concentration (EC50) on human CYP11B1 of 18.8 nM.
`Cc1ccncc1C(=O)N1CC2(CCN(c3cncc(N4C(=O)c5ccc(Cl)cc5C4(C)C)c3)CC2)C1` [Example 61, 5-Chloro-3,3-dimethyl-2-[5-[2-(4-methylpyridine-3-carbonyl)-2,7-diazaspiro[3.5]nonan-7-yl]-3-pyridyl]isoindolin-1-one] had a concentration for a half-maximal effect (EC50) at human CYP11B1 of 2.11 nM.
Same read-out and setting: under `CCn1cc(C(=O)N2CCC3(CC2)CN(c2cncc(N4C(=O)c5ccc(Cl)cc5C4(C)C)c2)C3)cn1` [Example 58, 5-Chloro-2-[5-[7-(1-ethylpyrazole-4-carbonyl)-2,7-diazaspiro[3.5]nonan-2-yl]-3-pyridyl]-3,3-dimethyl-isoindolin-1-one] stands 9.64 nM.
On the same count and under the same terms, with `Cn1cc(C(=O)N2CC3(CCN(c4cncc(N5C(=O)c6ccc(Cl)cc6C5(C)C)c4)CC3)C2)cn1` [Example 59, 5-Chloro-3,3-dimethyl-2-[5-[2-(1-methylpyrazole-4-carbonyl)-2,7-diazaspiro[3.5]nonan-7-yl]-3-pyridyl]isoindolin-1-one] the figure was 0.819 nM.

As a reminder, the EC50 is the concentration needed to bring the measured effect to its halfway point.
